Entries after “also recorded” stand apart in the source; their conditions may differ.
Tests used:
Format in all cases: cell-based
[1] = system: inducible human embryoids; assay: Formation of organized inducible human embryoids with BMP inhibitor added between days 0-2; details: added between days 0-2 post-aggregation; vs untreated control
Procedure: (§1) To generate the three-dimensional stem cell-derived model of the post-implantation embryo, RSeT cells between 2 and 6 passages post-conversion to RSeT media were passaged as normal. The media for extraembryonic-like cells (induced GATA6, induced GATA6-SOX17 or induced GATA3-AP2γ) was changed to N2B27 with 5% Knockout Serum Replacement and 1 μg/mL DOX on the following day (Day −3). This media was refreshed every 24 hours for 3 days. On Day 0 (the day of aggregation), an Aggrewell dish (34415, STEMCELL Technologies) was prepared by pre-coating with anti-adherence solution (07010, STEMCELL Technologies) and centrifuging at 2000 g for 5 minutes. Wells were washed twice with PBS prior to the addition of experiment media. This media consisted of N2B27 with 5% knockout serum replacement, 1 μg/mL doxycycline, and 10 μM Y-27632. Induced cells and wildtype ESCs were enzymatically dissociated 1 hour after addition of 10 μM Y-27632 to wells containing cells for inducible human embryoid generation. Dissociated cells were pelleted and resuspended in experiment media and placed in gelatin-coated wells for MEF depletion. After 15-30 minutes, cells were counted, mixed, and plated into an Aggrewell dish with a final calculation of 8 wildtype-ESC, 8 hypoblast-like, and 16 trophoblast-like cells plated per microwell in the Aggrewell. […]

[2] = system: human embryo-like model; assay: Number of SOX17/NANOG/AP2γ triple-positive primordial germ cell-like cells in treated embryoids; details: Day 4 embryoids; vs control
Procedure: as §1, with “Aggrewell. At 8 d.p.f., in vitro cultured human embryos had 32:24:228 epiblast:hypoblast:trophoblast cells. Importantly, however, many of the trophoblast cells were not in contact with the inner cell mass-derived tissues or were terminally differentiated. Additionally, inducible GATA6-SOX17 cells in culture proliferated slower than the other two cell populations after doxycycline addition. Therefore, an initial seeding density with: (1) a total cell number similar to that used in mouse models that allowed for successful cell sorting; (2) a ratio of cells that reflected the peri-implantation embryo; and (3) a reduced number of inducible GATA3-AP2γ cells and an increased number of inducible GATA6-SOX17 cells was utilized.” for “Aggrewell.”

[3] = system: human embryo-like model; assay: Differentiation of the inner epiblast-like domain (SOX2, CDX2, AP2a immunofluorescence) in treated human embryo-like model; details: treated between 48- and 96-hours post-aggregation; Day 4 and Day 6; compared to untreated control or BMP4 treated structures
Procedure: as §1

c1ccc2c(-c3cnn4cc(-c5ccc(N6CCNCC6)cc5)cnc34)ccnc2c1 [LDN193189]
formation of organized structures (embryoid formation) [1]: blocked formation of organized structures; also recorded: failing to form | number of primordial germ cell-like cells [2]: decreased | CDX2 and AP2a upregulation in the inner domain [3]: lesser CDX2 and AP2a upregulation | SOX2 expression in the inner domain [3]: increased maintenance of SOX2 expression

B1: BMP4: bone morphogenic protein-4, TGFβ superfamily member (protein, UniProt P12644 293-408, looked up)
Bone morphogenetic protein 4: SPKHHSQRARKKNKNCRRHSLYVDFSDVGWNDWIVAPPGYQAFYCHGDCPFPLADHLNSTNHAIVQTLVNSVNSSIPKACCVPTELSAISMLYLDEYDKVVLKNYQEMVVEGCGCR
number of primordial germ cell-like cells [2]: minimal effect

B2: Activin-A: an agonist of SMAD2.3 signaling (protein, UniProt P08476 311-426, looked up)
Inhibin beta A chain: GLECDGKVNICCKKQFFVSFKDIGWNDWIIAPSGYHANYCEGECPSHIAGTSGSSLSFHSTVINHYRMRGHSPFANLKSCCVPTKLRPMSMLYYDDGQNIIKKDIQNMIVEECGCS
modifications: Inhibin beta A chain
notes: an agonist of SMAD2.3 signaling
number of primordial germ cell-like cells [2]: minimal effect

Reference: patent publication US20240101957A1, “METHODS AND COMPOSITIONS FOR GENERATING EMBRYOS IN VITRO FROM PLURIPOTENT STEM CELLS” (California Institute of Technology, priority 2022, published 2024)
